Reference: ChEMBL document CHEMBL1201862, “PubChem BioAssay data set” (2004)
The source made the active and inactive calls.

Key:
[1] = viability of uninfected HEp-2 cells – cell-based, HTS, cytotoxicity control for RSV inhibitor project, dose response (AID 2410); assay type: functional; details: human respiratory syncytial virus
[2] = target: T1, Disintegrin and metalloproteinase domain-containing protein 17 (Homo sapiens, UniProt P78536); assay: exosite inhibitors of ADAM17, dose response, biochemical (AID 743260)
T1 sequence (P78536 whole entry, the tested form may be a part): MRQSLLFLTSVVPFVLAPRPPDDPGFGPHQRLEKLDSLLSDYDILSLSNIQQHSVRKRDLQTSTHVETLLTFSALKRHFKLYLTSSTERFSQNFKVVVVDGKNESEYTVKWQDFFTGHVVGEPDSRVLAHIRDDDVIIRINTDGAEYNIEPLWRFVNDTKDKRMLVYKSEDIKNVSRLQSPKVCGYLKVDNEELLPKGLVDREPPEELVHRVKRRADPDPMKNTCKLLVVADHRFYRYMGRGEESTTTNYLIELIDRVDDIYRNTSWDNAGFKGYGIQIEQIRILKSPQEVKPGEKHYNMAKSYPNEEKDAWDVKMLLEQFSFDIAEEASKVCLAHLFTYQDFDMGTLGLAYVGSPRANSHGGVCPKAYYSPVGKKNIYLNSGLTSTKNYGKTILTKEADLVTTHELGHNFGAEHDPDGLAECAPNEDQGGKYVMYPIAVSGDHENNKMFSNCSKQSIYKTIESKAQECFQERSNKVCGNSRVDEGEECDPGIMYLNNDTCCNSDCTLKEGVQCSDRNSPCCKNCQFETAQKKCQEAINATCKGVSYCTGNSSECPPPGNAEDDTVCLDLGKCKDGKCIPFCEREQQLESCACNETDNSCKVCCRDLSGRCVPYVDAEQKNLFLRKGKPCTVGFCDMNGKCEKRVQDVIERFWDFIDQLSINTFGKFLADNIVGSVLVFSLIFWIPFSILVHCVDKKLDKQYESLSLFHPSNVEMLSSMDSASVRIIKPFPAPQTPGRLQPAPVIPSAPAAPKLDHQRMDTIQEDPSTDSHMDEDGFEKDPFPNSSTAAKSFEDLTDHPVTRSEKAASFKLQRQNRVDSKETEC

[3] = inhibition of ADAM10 peptide cleavage – biochemical, FRET peptide substrate, recombinant human ADAM10, selectivity assay for ADAM17 exosite inhibitor project, dose response (AID 743259);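 also: ADAM10 enzyme cleaving a FRET peptide substrate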
Vero [4] = assay: viability loss in Vero cells – cell-based, plate reader, cherry-pick samples, cytotoxicity control, dose response (AID 687020); assay type: functional; details: Chlorocebus sabaeus
[5] = Luminescence Cell-Based Dose Retest to Confirm Inhibitors of Cancer Stem Cells. [Related pubchem assays (depositor defined):AID2717, AID2721]; assay type: functional; details: Homo sapiens
[6] = blockers of HIV-1 envelope-mediated cell-cell fusion – cherry-pick, dose response (AID 652057); assay type: functional, cell-based
[7] = viability loss in CEM21 cells – cell-based, CellTiter-Glo luminescence, cherry-picked, cytotoxicity control for viral fusion inhibitor project, dose response (AID 652042); assay type: functional;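 also: potency for signal decrease meaning cytotoxicity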
[8] = blockers of HIV-1 ZM109 envelope-driven cell-cell fusion – HeLa effector, CEM target cells, luciferase, cherry-pick, dose response (AID 652058); assay type: functional, cell-based;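 also: luciferase signal from HIV-1 Env mediated cell-cell fusion of effector and target cells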
[9] = off-target signal loss in HeLa-CEM21 co-culture – HeLa F-luc CTL cells, cherry-picked, counter-screen for HIV-1 Env fusion inhibitor project, dose response (AID 652040); assay type: functional, cell-based;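 also: potency for signal decrease marking cytotoxic or nonspecific inhibition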
[10] = HIV-1 AD8 envelope cell-cell fusion blockers – cherry-pick, dose response (AID 652062); assay type: functional, cell-based;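 also: luciferase signal from cell-cell fusion driven by HIV-1 clade B AD8 Env; potency is for inhibitors of fusion seen as a drop in luminescence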
Transthyretin = Transthyretin (Homo sapiens, UniProt P02766); assay: Luminescence-based cell-based high throughput dose response assay to identify activators of Transthyretin (TTR) transcription.; assay type: functional
[11] = target: T2, Heat shock factor protein 1 (Mus musculus, UniProt P38532); assay: decrease of HSF1-responsive luciferase luminescence – cell-based, NIH3T3, dose retest, confirmation (AID 2382); assay type: functional;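 also: NIH3T3 fibroblasts with HSF1-driven luciferase reporter stressed by proteasome inhibitor MG132; luminescence from HSF1-driven luciferase expression after 8 hours of MG132 stress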
T2 sequence (P38532 whole entry): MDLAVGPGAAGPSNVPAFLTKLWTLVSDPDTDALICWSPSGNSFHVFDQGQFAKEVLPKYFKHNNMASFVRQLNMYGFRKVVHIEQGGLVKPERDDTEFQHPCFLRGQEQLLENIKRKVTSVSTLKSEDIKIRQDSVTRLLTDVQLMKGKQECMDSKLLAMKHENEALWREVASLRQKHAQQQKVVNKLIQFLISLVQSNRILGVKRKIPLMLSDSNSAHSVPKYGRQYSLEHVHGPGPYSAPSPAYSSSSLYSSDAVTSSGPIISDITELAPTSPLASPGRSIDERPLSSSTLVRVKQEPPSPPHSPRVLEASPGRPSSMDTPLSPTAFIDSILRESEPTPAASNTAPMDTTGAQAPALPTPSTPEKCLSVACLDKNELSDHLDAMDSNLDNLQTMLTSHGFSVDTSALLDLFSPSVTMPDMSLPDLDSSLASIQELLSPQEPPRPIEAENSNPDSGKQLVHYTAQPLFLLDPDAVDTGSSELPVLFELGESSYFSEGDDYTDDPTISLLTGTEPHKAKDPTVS

Leucine aminopeptidase = target: T3, Leucine aminopeptidase (Plasmodium falciparum 3D7, UniProt Q8IL11); assay: P. falciparum M17LAP inhibitors, primary screen, biochemical, fluorogenic H-Leu-NHMec substrate, 1536-well (AID 1619); assay type: functional
T3 sequence (Q8IL11 whole entry): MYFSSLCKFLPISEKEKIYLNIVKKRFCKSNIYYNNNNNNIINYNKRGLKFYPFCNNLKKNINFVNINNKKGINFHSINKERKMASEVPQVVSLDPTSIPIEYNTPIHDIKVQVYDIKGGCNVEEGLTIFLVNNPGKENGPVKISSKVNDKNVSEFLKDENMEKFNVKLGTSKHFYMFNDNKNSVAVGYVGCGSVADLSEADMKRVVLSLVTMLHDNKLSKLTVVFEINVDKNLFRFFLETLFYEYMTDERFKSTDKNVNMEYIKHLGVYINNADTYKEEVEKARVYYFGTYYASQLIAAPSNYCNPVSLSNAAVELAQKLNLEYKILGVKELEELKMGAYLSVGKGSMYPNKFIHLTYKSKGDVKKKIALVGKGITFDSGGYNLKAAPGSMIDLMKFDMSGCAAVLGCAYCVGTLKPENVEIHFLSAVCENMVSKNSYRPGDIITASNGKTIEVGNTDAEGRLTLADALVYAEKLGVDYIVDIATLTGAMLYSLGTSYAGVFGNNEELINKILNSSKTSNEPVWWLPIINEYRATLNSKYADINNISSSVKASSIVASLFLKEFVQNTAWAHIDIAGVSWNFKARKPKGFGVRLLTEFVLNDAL

Vero [12] = assay: viability of Vero cells under compound – cytotoxicity control for flavivirus capping enzyme inhibitors (AID 588742); assay type: functional; details: Chlorocebus sabaeus
Genome polyprotein = Genome polyprotein (dengue virus type 2, UniProt P29990); assay: flavivirus cap methylation enzyme inhibition – biochemical, confirmation dose response, primary screen (AID 588689); assay type: functional
Sequence of Genome polyprotein (P29990 2492-3391 limits assumed): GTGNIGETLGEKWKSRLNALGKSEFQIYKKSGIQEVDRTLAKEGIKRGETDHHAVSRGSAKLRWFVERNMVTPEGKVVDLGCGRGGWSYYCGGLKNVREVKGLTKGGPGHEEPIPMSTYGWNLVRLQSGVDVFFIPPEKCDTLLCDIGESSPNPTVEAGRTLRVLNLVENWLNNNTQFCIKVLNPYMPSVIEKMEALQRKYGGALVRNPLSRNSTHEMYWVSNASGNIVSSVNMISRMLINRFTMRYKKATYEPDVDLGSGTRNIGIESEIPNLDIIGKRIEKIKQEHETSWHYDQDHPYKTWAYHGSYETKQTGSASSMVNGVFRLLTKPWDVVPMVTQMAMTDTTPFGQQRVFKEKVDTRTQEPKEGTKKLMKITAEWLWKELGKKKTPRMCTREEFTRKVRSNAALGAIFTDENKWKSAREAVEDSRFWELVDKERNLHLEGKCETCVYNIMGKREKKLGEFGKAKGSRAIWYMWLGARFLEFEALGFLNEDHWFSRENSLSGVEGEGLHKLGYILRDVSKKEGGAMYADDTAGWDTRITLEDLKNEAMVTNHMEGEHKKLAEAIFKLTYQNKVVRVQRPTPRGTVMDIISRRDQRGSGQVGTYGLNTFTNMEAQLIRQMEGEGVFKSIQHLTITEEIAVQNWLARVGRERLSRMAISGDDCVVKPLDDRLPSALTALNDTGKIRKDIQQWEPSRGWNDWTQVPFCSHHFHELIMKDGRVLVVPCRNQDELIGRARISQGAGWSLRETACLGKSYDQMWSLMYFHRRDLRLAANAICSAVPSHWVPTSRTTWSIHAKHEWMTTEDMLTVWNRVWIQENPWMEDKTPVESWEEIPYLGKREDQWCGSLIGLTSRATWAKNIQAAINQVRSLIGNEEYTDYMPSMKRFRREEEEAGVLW

[13] = target: 1-phosphatidylinositol 4,5-bisphosphate phosphodiesterase gamma-1 (Homo sapiens, UniProt P19174); assay: Counterscreen for inhibitors of phospholipase C isozymes (PLC-B3): Fluorescence-based biochemical high throughput dose response assay to identify inhibitors of phospholipase C isozymes (PLC-gamma1).
Sequence of 1-phosphatidylinositol 4,5-bisphosphate phosphodiesterase gamma-1 (P19174 whole entry): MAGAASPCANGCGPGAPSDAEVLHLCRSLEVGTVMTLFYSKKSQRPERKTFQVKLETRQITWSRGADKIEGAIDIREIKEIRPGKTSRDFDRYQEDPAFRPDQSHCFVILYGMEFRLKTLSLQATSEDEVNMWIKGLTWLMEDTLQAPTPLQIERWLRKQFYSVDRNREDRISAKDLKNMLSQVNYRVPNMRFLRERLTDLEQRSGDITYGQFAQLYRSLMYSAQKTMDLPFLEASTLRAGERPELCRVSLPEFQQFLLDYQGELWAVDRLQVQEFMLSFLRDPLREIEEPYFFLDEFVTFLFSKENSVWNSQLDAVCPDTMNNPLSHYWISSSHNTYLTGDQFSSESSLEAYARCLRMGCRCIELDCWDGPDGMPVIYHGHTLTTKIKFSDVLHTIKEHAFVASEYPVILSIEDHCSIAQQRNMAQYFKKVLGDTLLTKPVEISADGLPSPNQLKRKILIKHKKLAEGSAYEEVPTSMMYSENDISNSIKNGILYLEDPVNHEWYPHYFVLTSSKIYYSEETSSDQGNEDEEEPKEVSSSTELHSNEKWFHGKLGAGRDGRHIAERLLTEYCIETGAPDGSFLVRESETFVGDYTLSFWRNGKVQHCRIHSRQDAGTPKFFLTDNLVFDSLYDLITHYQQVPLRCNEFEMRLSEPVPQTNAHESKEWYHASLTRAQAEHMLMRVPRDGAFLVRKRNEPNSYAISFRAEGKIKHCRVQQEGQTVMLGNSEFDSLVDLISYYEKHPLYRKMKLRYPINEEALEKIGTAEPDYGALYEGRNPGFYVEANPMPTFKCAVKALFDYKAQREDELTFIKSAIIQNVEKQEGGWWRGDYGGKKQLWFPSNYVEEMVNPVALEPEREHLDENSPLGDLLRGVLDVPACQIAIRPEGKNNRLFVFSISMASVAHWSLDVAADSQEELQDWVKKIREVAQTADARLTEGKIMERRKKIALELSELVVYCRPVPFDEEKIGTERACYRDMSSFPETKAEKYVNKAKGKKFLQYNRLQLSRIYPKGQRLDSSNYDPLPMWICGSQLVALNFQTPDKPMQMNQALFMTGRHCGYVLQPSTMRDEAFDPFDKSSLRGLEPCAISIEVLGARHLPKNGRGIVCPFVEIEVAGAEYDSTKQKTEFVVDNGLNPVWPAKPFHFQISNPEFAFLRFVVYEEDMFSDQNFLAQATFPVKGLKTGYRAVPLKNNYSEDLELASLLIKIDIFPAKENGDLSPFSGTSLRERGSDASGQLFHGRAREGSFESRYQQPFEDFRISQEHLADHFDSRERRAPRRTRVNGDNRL

[14] = target: 1-phosphatidylinositol 4,5-bisphosphate phosphodiesterase beta-3 (Homo sapiens, UniProt Q01970); assay: Fluorescence-based biochemical high throughput dose response assay to identify inhibitors of phospholipase C isozymes (PLC-B3).
Sequence of 1-phosphatidylinositol 4,5-bisphosphate phosphodiesterase beta-3 (Q01970 whole entry): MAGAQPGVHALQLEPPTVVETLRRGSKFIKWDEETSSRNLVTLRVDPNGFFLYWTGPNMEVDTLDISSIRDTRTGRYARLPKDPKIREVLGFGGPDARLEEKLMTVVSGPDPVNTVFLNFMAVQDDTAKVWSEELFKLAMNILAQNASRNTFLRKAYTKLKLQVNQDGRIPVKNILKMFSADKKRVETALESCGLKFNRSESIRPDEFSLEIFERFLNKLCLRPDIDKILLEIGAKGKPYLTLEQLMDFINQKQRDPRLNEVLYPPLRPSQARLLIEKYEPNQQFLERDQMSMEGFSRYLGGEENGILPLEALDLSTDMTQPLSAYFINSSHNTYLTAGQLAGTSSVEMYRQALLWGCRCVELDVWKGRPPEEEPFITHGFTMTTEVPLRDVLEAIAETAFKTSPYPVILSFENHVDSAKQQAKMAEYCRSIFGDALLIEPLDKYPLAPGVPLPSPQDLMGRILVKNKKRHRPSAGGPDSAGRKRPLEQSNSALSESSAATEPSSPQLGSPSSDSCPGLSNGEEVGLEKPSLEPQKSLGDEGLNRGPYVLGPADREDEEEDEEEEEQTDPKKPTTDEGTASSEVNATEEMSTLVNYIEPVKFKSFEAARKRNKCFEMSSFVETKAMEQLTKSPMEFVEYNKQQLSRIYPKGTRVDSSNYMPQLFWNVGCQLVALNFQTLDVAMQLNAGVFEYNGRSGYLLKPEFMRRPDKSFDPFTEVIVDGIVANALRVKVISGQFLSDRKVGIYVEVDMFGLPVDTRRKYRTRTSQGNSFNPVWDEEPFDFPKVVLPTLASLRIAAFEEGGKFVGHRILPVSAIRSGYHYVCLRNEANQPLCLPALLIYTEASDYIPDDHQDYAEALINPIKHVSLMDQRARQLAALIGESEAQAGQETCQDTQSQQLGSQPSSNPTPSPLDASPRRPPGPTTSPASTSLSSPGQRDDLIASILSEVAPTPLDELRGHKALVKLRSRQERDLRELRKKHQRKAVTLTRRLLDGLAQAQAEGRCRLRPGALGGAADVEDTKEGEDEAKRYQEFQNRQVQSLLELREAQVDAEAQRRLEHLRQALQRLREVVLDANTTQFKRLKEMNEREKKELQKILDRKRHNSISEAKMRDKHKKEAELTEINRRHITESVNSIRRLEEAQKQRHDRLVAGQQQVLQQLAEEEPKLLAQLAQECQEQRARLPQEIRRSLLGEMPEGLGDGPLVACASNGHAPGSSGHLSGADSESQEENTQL

[15] = reduction of Shn3 3'UTR-driven luciferase in osteoblasts – cell-based, Clone20 osteoblasts, firefly luciferase, cherry-picked, dose response (AID 624132); assay type: functional;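 also: firefly luciferase luminescence from reporter carrying the Shn3 3'UTR in osteoblasts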
[16] = non-specific 3'UTR reporter inhibition in Clone20-Shn3RL – cell-based, Renilla luciferase, cherry-picked, counter-screen for Shn3 inhibitor project, dose response (AID 624133); assay type: functional
Paired box protein Pax-8 = Paired box protein Pax-8 (Homo sapiens, UniProt Q06710); assay: PAX8 transcriptional activity inhibition in RMG-I – RMG-I cells, luciferase, cherry-pick, dose response (AID 687027); assay type: functional, cell-based;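 also: luciferase reporter driven by Pax8 target thyroperoxidase promoter measured by SteadyGlo luminescence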
Sequence of Paired box protein Pax-8 (Q06710 whole entry): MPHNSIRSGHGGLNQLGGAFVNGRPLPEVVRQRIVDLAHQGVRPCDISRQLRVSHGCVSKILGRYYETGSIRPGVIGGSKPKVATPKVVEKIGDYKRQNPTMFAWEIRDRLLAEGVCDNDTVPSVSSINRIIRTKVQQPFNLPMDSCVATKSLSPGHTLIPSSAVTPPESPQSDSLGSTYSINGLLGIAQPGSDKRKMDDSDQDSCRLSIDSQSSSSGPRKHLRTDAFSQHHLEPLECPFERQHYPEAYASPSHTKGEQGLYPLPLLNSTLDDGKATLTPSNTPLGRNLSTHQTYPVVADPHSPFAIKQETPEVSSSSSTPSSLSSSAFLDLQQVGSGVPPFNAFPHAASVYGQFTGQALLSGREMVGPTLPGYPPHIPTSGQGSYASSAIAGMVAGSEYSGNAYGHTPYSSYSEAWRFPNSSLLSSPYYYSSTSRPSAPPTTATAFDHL

[17] = potency of ADAM10 substrate cleavage blockers – biochemical, QFRET, dose response (AID 743254);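 also: ADAM10 enzyme with the DM2 quenched FRET peptide as substrate; EDANS fluorescence gain as the protease cuts the substrate; inhibitor potency against ADAM10 proteolytic activity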
[18] = target: T1, Disintegrin and metalloproteinase domain-containing protein 17; assay: inhibition of ADAM17 substrate cleavage – biochemical, quenched FRET substrate, counter-screen for ADAM10 exosite inhibitor project, dose response (AID 743253)
[19] = target: Dual specificity tyrosine-phosphorylation-regulated kinase 1A (Rattus norvegicus, UniProt Q63470); assay type: biochemical, Homo sapiens
[20] = target: T4, Sentrin-specific protease 1 (Homo sapiens, UniProt Q9P0U3); assay: SENP1 catalytic domain blockers, concentration series – biochemical, kinetic FRET, dose response (AID 651697); assay type: functional; details: read-out: IC50_Mean
T4 sequence (Q9P0U3 whole entry): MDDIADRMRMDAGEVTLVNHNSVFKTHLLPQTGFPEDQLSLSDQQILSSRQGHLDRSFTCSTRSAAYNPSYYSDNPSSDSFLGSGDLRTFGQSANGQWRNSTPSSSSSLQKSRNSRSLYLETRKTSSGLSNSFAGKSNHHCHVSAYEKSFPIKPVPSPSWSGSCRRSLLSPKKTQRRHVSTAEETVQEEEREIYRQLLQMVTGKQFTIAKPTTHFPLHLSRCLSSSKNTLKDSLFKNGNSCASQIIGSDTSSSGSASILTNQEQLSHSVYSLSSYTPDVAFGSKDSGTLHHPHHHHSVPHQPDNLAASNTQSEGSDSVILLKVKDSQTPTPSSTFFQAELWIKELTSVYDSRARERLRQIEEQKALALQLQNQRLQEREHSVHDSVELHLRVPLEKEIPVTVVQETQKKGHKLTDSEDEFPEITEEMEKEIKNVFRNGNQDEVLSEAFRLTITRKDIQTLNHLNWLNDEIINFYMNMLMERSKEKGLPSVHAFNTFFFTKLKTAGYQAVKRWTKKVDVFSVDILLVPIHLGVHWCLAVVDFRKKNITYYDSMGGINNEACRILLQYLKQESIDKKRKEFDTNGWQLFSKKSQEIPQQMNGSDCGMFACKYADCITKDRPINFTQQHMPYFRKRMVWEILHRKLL

[21] = target: T4, Sentrin-specific protease 1; assay: Dose response confirmation of small molecule inhibitors of the catalytic domain of the SUMO protease, SENP1 in a FRET assay.; assay type: functional; details: read-out: IC50_Mean

## CCOc1cc2c3c(c1)C1(C(=O)N3C(C)(C)C=C2C)C(C#N)=C(N)Oc2cc(O)ccc21 (stereo not drawn)
[1]
  CC50: 11.8 µM (active)
[2]
  IC50: > 69.5 µM (inactive)
[3]
  IC50: > 69.5 µM (inactive)

## CSc1ccc(S(=O)(=O)NC2CC3CCC2C3)cc1 (stereo not drawn)
Vero [4]
  AC50: 16.8 µM (active)

## Cc1nn(Cc2ccc(Cl)c(Cl)c2)c(C)c1NC(=O)c1cc(-c2ccc3c(c2)OCO3)on1
[5]
  AC50: 471 nM (active)
[6]
  AC50: 20.3 µM (active)
[7]
  AC50: 20.6 µM (active)
[8]
  AC50: 28.7 µM (active)
[9]
  AC50: > 70 µM (inactive)
[10]
  AC50: 56 µM (active)

## Cc1ccc(Nc2c3c(nc4ncnn24)CCC3)cc1
Transthyretin
  EC50: > 167 µM (inactive)

## CC1(C)CC(NC(=O)COc2ccccc2Cl)CC(C)(C)N1
[11]
  EC50: 2.65 µM (active)
Vero [4]
  AC50: 33.7 µM (active)

## O=Cc1cc(N=Nc2cccc(C(=O)O)c2)ccc1O
Leucine aminopeptidase
  IC50: 51.5 µM (active)
Vero [12]
  CC50: > 40 µM (active)
Genome polyprotein
  IC50: 99.6 µM (active)
[13]
  IC50: 23.7 µM (inactive)
[14]
  IC50: > 122 µM (inactive)

## C=CCC[C@H](Cc1ccc(F)cc1)C(=O)OC[C@H](Cc1c[nH]c2ccccc12)NC(=O)[C@H](CC=C)CC(=O)N(CCO)Cc1ccccc1
[15]
  AC50: 11.7 µM (active)
[16]
  AC50: 20.1 µM (active)
Paired box protein Pax-8
  AC50: 12.9 µM (active)
[17]
  IC50: 6.93 µM (active)
[18]
  IC50: > 69.5 µM (inactive)

## Cc1ccc2c(c1)C(=C(C#N)C#N)CCN2
[19]
  AC50: 5.69 µM (active)
[20]
  IC50: 20.1 µM (inactive)
[21]
  IC50: 11 µM (active)
[8]
  AC50: 2 µM (active)
[9]
  AC50: 42.3 µM (active)
